Assay results: article PMC9120017, “Inhibition mechanism of the chloride channel TMEM16A by the pore blocker 1PBC” (Nature Communications, 2022)
Read-outs that look alike come from different tables or passages of the source.

Biological target: T1, mouse TMEM16A mutant G558P (Mus musculus, UniProt Q8BHY3, G558P)
T1 construct: expressed in transfected cells; host or cells: HEK293T
T1 sequence (Q8BHY3 1-960 G558P): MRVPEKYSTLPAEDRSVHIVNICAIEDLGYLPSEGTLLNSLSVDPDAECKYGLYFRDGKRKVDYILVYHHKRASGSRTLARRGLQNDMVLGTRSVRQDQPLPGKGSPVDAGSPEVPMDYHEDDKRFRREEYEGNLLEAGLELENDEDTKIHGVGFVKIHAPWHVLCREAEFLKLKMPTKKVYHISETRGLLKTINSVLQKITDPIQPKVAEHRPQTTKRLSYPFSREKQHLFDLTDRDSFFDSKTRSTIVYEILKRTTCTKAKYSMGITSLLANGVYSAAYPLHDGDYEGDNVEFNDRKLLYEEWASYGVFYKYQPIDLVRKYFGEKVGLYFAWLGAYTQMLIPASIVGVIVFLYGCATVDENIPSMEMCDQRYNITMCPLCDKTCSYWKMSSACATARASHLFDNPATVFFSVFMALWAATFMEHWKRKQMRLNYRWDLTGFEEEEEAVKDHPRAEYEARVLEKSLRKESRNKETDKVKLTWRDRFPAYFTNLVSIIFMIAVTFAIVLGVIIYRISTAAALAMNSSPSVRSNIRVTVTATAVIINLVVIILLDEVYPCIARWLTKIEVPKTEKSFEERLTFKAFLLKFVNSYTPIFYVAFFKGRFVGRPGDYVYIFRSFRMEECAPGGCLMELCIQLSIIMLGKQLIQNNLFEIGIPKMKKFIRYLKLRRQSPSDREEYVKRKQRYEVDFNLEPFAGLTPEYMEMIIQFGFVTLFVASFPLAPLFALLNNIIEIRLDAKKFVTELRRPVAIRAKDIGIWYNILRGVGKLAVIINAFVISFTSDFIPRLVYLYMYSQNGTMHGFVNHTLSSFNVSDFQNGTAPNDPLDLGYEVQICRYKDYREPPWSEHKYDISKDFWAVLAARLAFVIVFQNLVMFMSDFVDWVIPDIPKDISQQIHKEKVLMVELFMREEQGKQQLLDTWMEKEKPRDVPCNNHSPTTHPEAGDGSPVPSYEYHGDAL
Experiment: Inside-out patch recording of 1PBC block, mutant G558P
Format: cell-based
Conditions: for remaining activity at 1 µM: 1PBC conc 1; for remaining activity at 1 µM / remaining activity at 3 µM / remaining activity at 10 µM / remaining activity at 30 µM / remaining activity at 100 µM: read-out: relative current in 1PBC (avr); for remaining activity at 3 µM: 1PBC conc 3; for remaining activity at 10 µM: 1PBC conc 10; for remaining activity at 30 µM: 1PBC conc 30; for remaining activity at 100 µM: 1PBC conc 100
Description: HEK293T cells (ATCC CRL-1573) were maintained in Dulbecco’s modified Eagle’s medium (DMEM; Sigma-Aldrich) supplemented with 10 U ml^−1 penicillin, 0.1 mg ml^−1 streptomycin (Sigma-Aldrich), 2 mM L-glutamine (Sigma-Aldrich), and 10% FBS (Sigma-Aldrich) in a humidified atmosphere containing 5% CO2 at 37 °C. HEK293S GnTI^− cells (ATCC CRL-3022) were maintained in HyClone HyCell TransFx-H medium (GE Healthcare) supplemented with 10 U ml^−1 penicillin, 0.1 mg ml^−1 streptomycin, 4 mM L-glutamine, 0.15% poloxamer 188 (Sigma-Aldrich), and 1% FBS in an atmosphere containing 5% CO2 at 185 rpm at 37 °C. The ac splice variant of mouse TMEM16A (UniProt ID: Q8BHY3), mouse TMEM16B (UniProt ID: Q8CFW1), or mouse TMEM16F (UniProt ID: Q6P9J9) bearing a 3C cleavage site, a Venus YFP, a Myc tag, and a Streptavidin-binding peptide (SBP) downstream of the open reading frame in a modified pcDNA3.1 vector (Invitrogen) were used as described previously[21],[31]. Mutations were introduced using a modified QuikChange method[58] and were verified by sequencing.
HEK293T cells were transfected with 3–4 μg DNA per 6 cm Petri dish using the calcium phosphate co-precipitation method and were used within 24–96 h after transfection. Recordings were performed on inside-out patches excised from HEK293T cells expressing the construct of interest. Patch pipettes were pulled from borosilicate glass capillaries (O.D. 1.5 mm, I.D. 0.86 mm, Sutter Instrument) and were fire-polished with a microforge (Narishige) before use. Pipette resistance was typically 3–8 MΩ when filled with the recording solutions detailed below. Seal resistance was typically 4 GΩ or higher. Voltage-clamp recordings were made using Axopatch 200B, Digidata 1550, and Clampex 10.7 (Molecular Devices). Analog signals were filtered with the in-built 4-pole Bessel filter at 10 kHz and were digitized at 20 kHz. Solution exchange was achieved using a gravity-fed system through a theta glass pipette mounted on an ultra-fast piezo-driven stepper (Siskiyou). […] All recordings were performed at 20 °C.
A symmetrical ionic condition was used throughout. Stock solution with Ca^2+-EGTA contained 150 mM NaCl, 5.99 mM Ca(OH)2, 5 mM EGTA, and 10 mM HEPES at pH 7.40. Stock solution with EGTA contained 150 mM NaCl, 5 mM EGTA, and 10 mM HEPES at pH 7.40. Free Ca^2+ concentrations were adjusted by mixing the stock solutions at the required ratios calculated using the WEBMAXC program (http://web.stanford.edu/~cpatton/webmaxcS.htm). Patch pipettes were filled with the stock solution with Ca^2+-EGTA, which has a free Ca^2+ concentration of 1 mM. 1PBC (ChemBridge) stock was reconstituted in anhydrous DMSO (Sigma-Aldrich) at 100 mM and stored at −20 °C. Working solutions with 1PBC were prepared by serial dilution. Unless otherwise stated, experiments were performed at a saturating Ca^2+ concentration as shown in Supplementary Table 1 and the primary data were corrected for current rundown as described previously[21],[25].
Concentration-response relations, obtained from the ratio of the I-V plots before and after the application of the blocker, were fitted to the Hill equation,1 I/Imax=1/1+IC50/[blocker]^h where I/Imax is the normalized current responses, IC50 defines the concentration at which inhibition is at its half-maximum, and h is the Hill coefficient.

IC50 (0 mV, 15 µM Ca2+): 6.23 µM
remaining activity at 1 µM (0 mV): 83.9%
remaining activity at 3 µM (0 mV): 66.6%
remaining activity at 10 µM (0 mV): 39.1%
remaining activity at 30 µM (0 mV): 18.8%
remaining activity at 100 µM (0 mV): 7.07%
I/Imax_+80mV (1 μM 1PBC): 0.7511
I/Imax_-80mV (1 μM 1PBC, -80 mV): 0.9508
I/Imax_+80mV (3 μM 1PBC): 0.5097
I/Imax_-80mV (3 μM 1PBC, -80 mV): 0.8567
I/Imax_+80mV (10 μM 1PBC): 0.2409
I/Imax_-80mV (10 μM 1PBC, -80 mV): 0.6177
Effect of mutation G558P on block by 1PBC (15 µM Ca2+): did not interfere with block
I/Imax_+80mV (30 μM 1PBC): 0.1115
I/Imax_-80mV (30 μM 1PBC, -80 mV): 0.3696
I/Imax_+80mV (100 μM 1PBC): 0.03071
I/Imax_-80mV (100 μM 1PBC, -80 mV): 0.1483
IC50 (20 mV, 15 µM Ca2+): 4.87 µM
remaining activity at 1 µM (20 mV): 81.1%
remaining activity at 3 µM (20 mV): 60.9%
remaining activity at 10 µM (20 mV): 34%
remaining activity at 30 µM (20 mV): 15.5%
remaining activity at 100 µM (20 mV): 5.33%
IC50 (40 mV, 15 µM Ca2+): 3.94 µM
remaining activity at 1 µM (40 mV): 78.3%
remaining activity at 3 µM (40 mV): 56.7%
remaining activity at 10 µM (40 mV): 28.5%
remaining activity at 30 µM (40 mV): 13.4%
remaining activity at 100 µM (40 mV): 4.84%
IC50 (60 mV, 15 µM Ca2+): 3.4 µM
remaining activity at 1 µM (60 mV): 75.9%
remaining activity at 3 µM (60 mV): 52.9%
remaining activity at 10 µM (60 mV): 26.1%
remaining activity at 30 µM (60 mV): 12%
remaining activity at 100 µM (60 mV): 3.75%
IC50 (80 mV, 15 µM Ca2+): 3.14 µM
remaining activity at 1 µM (80 mV): 75.1%
remaining activity at 3 µM (80 mV): 51%
remaining activity at 10 µM (80 mV): 24.1%
remaining activity at 30 µM (80 mV): 11.2%
remaining activity at 100 µM (80 mV): 3.07%
IC50 (100 mV, 15 µM Ca2+): 3.03 µM
remaining activity at 1 µM (100 mV): 75.6%
remaining activity at 3 µM (100 mV): 50.3%
remaining activity at 10 µM (100 mV): 22.1%
remaining activity at 30 µM (100 mV): 10.7%
remaining activity at 100 µM (100 mV): 2.38%
IC50 (120 mV, 15 µM Ca2+): 3.26 µM
remaining activity at 1 µM (120 mV): 77.2%
remaining activity at 3 µM (120 mV): 52.2%
remaining activity at 10 µM (120 mV): 23.4%
remaining activity at 30 µM (120 mV): 10.7%
remaining activity at 100 µM (120 mV): 2.42%
IC50 (140 mV, 15 µM Ca2+): 3.86 µM
remaining activity at 1 µM (140 mV): 81.4%
remaining activity at 3 µM (140 mV): 57%
remaining activity at 10 µM (140 mV): 25.2%
remaining activity at 30 µM (140 mV): 12%
remaining activity at 100 µM (140 mV): 3.17%
IC50 (-20 mV, 15 µM Ca2+): 7.94 µM
remaining activity at 1 µM (-20 mV): 86.7%
remaining activity at 3 µM (-20 mV): 72.3%
remaining activity at 10 µM (-20 mV): 44.1%
remaining activity at 30 µM (-20 mV): 22.2%
remaining activity at 100 µM (-20 mV): 8.82%
IC50 (-40 mV, 15 µM Ca2+): 10.4 µM
remaining activity at 1 µM (-40 mV): 89.5%
remaining activity at 3 µM (-40 mV): 77.5%
remaining activity at 10 µM (-40 mV): 50.6%
remaining activity at 30 µM (-40 mV): 26.7%
remaining activity at 100 µM (-40 mV): 9.6%
IC50 (-60 mV, 15 µM Ca2+): 13.4 µM
remaining activity at 1 µM (-60 mV): 92.1%
remaining activity at 3 µM (-60 mV): 80.7%
remaining activity at 10 µM (-60 mV): 56.7%
remaining activity at 30 µM (-60 mV): 32.1%
remaining activity at 100 µM (-60 mV): 12.3%
IC50 (-80 mV, 15 µM Ca2+): 17.1 µM
remaining activity at 1 µM (-80 mV): 95.1%
remaining activity at 3 µM (-80 mV): 85.7%
remaining activity at 10 µM (-80 mV): 61.8%
remaining activity at 30 µM (-80 mV): 37%
remaining activity at 100 µM (-80 mV): 14.8%
IC50 (-100 mV, 15 µM Ca2+): 21.1 µM
remaining activity at 1 µM (-100 mV): 96.1%
remaining activity at 3 µM (-100 mV): 88.1%
remaining activity at 10 µM (-100 mV): 66.8%
remaining activity at 30 µM (-100 mV): 41.5%
remaining activity at 100 µM (-100 mV): 17.8%
IC50 (-120 mV, 15 µM Ca2+): 25.4 µM
remaining activity at 1 µM (-120 mV): 98.5%
remaining activity at 3 µM (-120 mV): 90.8%
remaining activity at 10 µM (-120 mV): 71.2%
remaining activity at 30 µM (-120 mV): 45.8%
remaining activity at 100 µM (-120 mV): 19.8%
IC50 (-140 mV, 15 µM Ca2+): 30 µM
remaining activity at 1 µM (-140 mV): 100%
remaining activity at 3 µM (-140 mV): 92.8%
remaining activity at 10 µM (-140 mV): 74.7%
remaining activity at 30 µM (-140 mV): 49.7%
remaining activity at 100 µM (-140 mV): 22.2%
IC50 (G558P, V 0 mV): 6.23 µM
IC50 (G558P, V 20 mV): 4.87 µM
IC50 (G558P, V 40 mV): 3.94 µM
IC50 (G558P, V 60 mV): 3.4 µM
IC50 (G558P, V 80 mV): 3.14 µM
IC50 (G558P, V 100 mV): 3.03 µM
IC50 (G558P, V 120 mV): 3.26 µM
IC50 (G558P, V 140 mV): 3.86 µM
IC50 (G558P, V -20 mV): 7.94 µM
IC50 (G558P, V -40 mV): 10.4 µM
IC50 (G558P, V -60 mV): 13.4 µM
IC50 (G558P, V -80 mV): 17.1 µM
IC50 (G558P, V -100 mV): 21.1 µM
IC50 (G558P, V -120 mV): 25.4 µM
IC50 (G558P, V -140 mV): 30 µM
SMILES: N#Cc1c(C(F)(F)F)cc(O)n2c1nc1ccccc12 [1PBC]
